Data from patent US11066433B2, “Pentaaza macrocyclic ring complexes possessing oral bioavailability” (Galera Labs, LLC, priority 2015, dated 2021).

Assay: Oral bioavailability by intraduodenal (id) dosing of minipigs, oil formulations, versus iv parent
Assay type: in vivo, Gottingen minipig
Details: for Mini-Pig BioA: id 10 mg/kg, 10% by weight formulation, vs iv 1 mg/kg parent, AUC0-24 h
Experimental: Compounds were screened for oral bioavailability by injecting the formulated prodrugs directly into the duodenum (intraduodenal or id administration) of the minipig test subjects, thus bypassing the acidic environment of the stomach and thereby eliminating potentially misleading oral bioavailability results that could arise from alteration of the test article drug in the acid environment of the stomach.
The studies were conducted at Xenometrics LLC (Stillwell, Kans.) and the id bioavailability was determined using various axial ligand derivative complexes of GC4419, GC4444, GC4403 and GC4401.
Male Gottingen minipigs (4-5 mo old, 9-12 kg weight) were purchased from Marshall BioResources and housed at Xenometrics. […] The distal end was exteriorized with a reusable accessible hub (see surgical details below). During a recovery period of at least 2 weeks the minipigs were handled daily to acclimate them to the test procedures, i.e., id dosing and blood collections. For each experiment, each minipig received a test article drug dissolved or suspended in an excipient vehicle. […] All dosing experiments were conducted in fasted animals. Food was withdrawn from the minipigs 16 hours before dosing. The minipigs had ad libitum access to water. Dosed minipigs were allowed access to food 6 hour after dosing. The test article was administered at a dose of 10 mg/kg parent drug in 0.1 mL/kg vehicle (e.g., 1.5 mL in 15 kg minipig) as a bolus injection (˜1 minute) via the id cannula. The actual amount of total test article drug administered varied with the formula weight of the prodrug. An equal volume of excipient vehicle was used to flush the cannula after the test article was administered. Approximately 6 hours later, corn oil was used to flush the cannula. After approximately 24 hours post-dose, the catheter was flushed with sterile saline solution and capped. At the following time-points 0.25, 0.5, 1, 2, 4, 8, 24 and 48 hour post-injection, 2 mL blood samples were collected by cranial vena cava puncture (4 mL Sodium heparin Vacutainer, 20 g 1.5″ needle) after the skin surface was wiped with ethanol. The minipig was placed in a sling in a recumbent position without anesthesia for the collection of blood samples. The minipigs were never used more than once per 7 days for experimentation. The blood samples were kept on ice until processed for plasma. Blood samples were centrifuged at 1200×g for ten minutes at 4° C. and plasma samples were transferred to 96 well plate tubes, capped and stored at −20° C. until shipment on dry ice to the analytical laboratory used for measuring the concentration of drug in the plasma. The concentration of the parent manganese pentaaza macrocylic ring complex (independent of the composition of the axial ligands) was measured in plasma using a validated HPLC/MS/MS method that is linear between 50 ng/mL and 20,000 ng/mL.
Maisine 35-1 is chemically defined to be the monoglyceride glyceryl monolinoleate (NF) and was supplied by Gattefosse, SAINT-PRIEST Cedex, France. Labrasol (NF) is chemically defined to be caprylocaproyl polyoxyl-8 glycerides NF and was supplied by Gattefosse, SAINT-PRIEST Cedex, France. Labrafil M 1944 CS is chemically defined to be oleoyl polyoxyl-6 glycerides (NF), and is available from Gattefosse, SAINT-PRIEST Cedex, France. The dosing solutions were all prepared using a four place analytical balance by weighing all components of each formulation so that 10% by weight of each formulation contained the test article drug substance and 90% by weight of the oil used for that formulation.
The bioanalytical method which is used to quantitate the parent Mn(II) macrocyclic ring ligand structure in plasma utilizes HPLC with MS/MS detection and monitors the presence of the monocationic [monoformatoMn(pentaazamacrocycle)]+ complex. […]

| Substance | Mini-Pig BioA (base oil Capmul MCM) [%] | Mini-Pig BioA (base oil Maisine 35-1) [%] | Mini-Pig BioA (base oil Peceol) [%] | Mini-Pig BioA (base oil Labrafil M2125 CS) [%] | also measured |
| --- | --- | --- | --- | --- | --- |
| Manganese(II)bis-Benzoato[(4aS,13aS,17aS,21aS)-1,2,3,4,4a,5,6,12,13,13a,14,15,16,17,17a,18,19,20,21,21a-Eicosahydro-11,7-nitrilo-7H-dibenzo[b,h][1,4,7,10] tetraazacycloheptadecine-κN5, κN13, κN18, κN21, κN22]- [GC4712] | 24 | 18 | 29 |  |  |
| Manganese(II)bis-L-Lactato[(4aS,13aS,17aS,21aS)-1,2,3,4,4a,5,6,12,13,13a,14,15,16,17,17a,18,19,20,21,21a-Eicosahydro-11,7-nitrilo-7H-dibenzo[b,h][1,4,7,10] tetraazacycloheptadecine-κN5, κN13, κN18, κN21, κN22]- [GC4714] | 36 |  |  |  |  |
| Manganese(II)bis-L-phenylalaninato[(4aS,13aS,17aS,21 aS)-1,2,3,4,4a,5,6,12,13,13a,14, 15,16,17,17a,18,19,20,21,21a-Eicosahydro-11,7-nitrilo-7H-dibenzo[b, h][1,4,7,10]tetraazacyclo-heptadecine-κN5, κN13, κN18, κN21, κN22]- [GC4704] | 10 |  |  |  |  |
| Manganese(II)bis-L-phenylglycinato[(4aS,13aS,17aS,21 aS)-1,2,3,4,4a,5,6,12,13,13a, 14,15,16,17,17a,18,19,20,21,21a-Eicosahydro-11,7-nitrilo-7H-dibenzo[b,h][1,4,7,10]tetraazacyclo-heptadecine-κN5, κN13, κN18, κN21, κN22]- [GC4702] | 43 |  | 29 | 25 | Mini-Pig BioA (base oil Miglyol 812 N): 42%; oral bioavailability, comparison in words (id dosing of minipigs, various oils): much better absorbed |
| Manganese(II)bis-L-valinato[(4aS,13aS,17aS,21aS)-1,2,3,4,4a,5,6,12,13,13a,14,15,16,17,17a,18,19,20,21,21a-Eicosahydro-11,7-nitrilo-7H-dibenzo[b,h][1,4,7,10] tetraazacyclo-heptadecine-κN5, κN13, κN18, κN21, κN22]- [GC4746] | 13 |  |  |  |  |
| Manganese(II)bis-acetato[(4aS,13aS,17aS,21aS)-1,2,3,4,4a,5,6,12,13,13a,14,15,16,17,17a,18,19,20,21,21a-Eicosahydro-11,7-nitrilo-7H-dibenzo[b,h][1,4,7,10] tetraazacycloheptadecine-κN5, κN13, κN18, κN21, κN22]- [GC4701] | 15 | 8 | 11 | 16 |  |
| Manganese(II)bis-cyclohexanebutyrato[(4aS,13aS,17aS,21 aS)-1,2,3,4,4a,5,6,12,13,13a, 14,15,16,17,17a,18,19,20,21,21a-Eicosahydro-11,7-nitrilo-7H-dibenzo[b,h][1,4,7,10]tetraazacyclo-heptadecine-κN5, κN13, κN18, κN21, κN22]- [GC4707] | 9 |  |  |  |  |
| Manganese(II)bis-dodecanoato[(4aS,13aS,17aS,21aS)-1,2,3,4,4a,5,6,12,13,13a,14,15,16,17,17a,18,19,20,21,21a-Eicosahydro-11,7-nitrilo-7H-dibenzo[b,h][1,4,7,10] tetraazacycloheptadecine-κN5, κN13, κN18, κN21, κN22]- [GC4708] | 12 |  |  |  |  |
| Manganese(II)bis-n-Butyrato[(4aS,13aS,17aS,21aS)-1,2,3,4,4a,5,6,12,13,13a,14,15,16,17,17a,18,19,20,21,21a-Eicosahydro-11,7-nitrilo-7H-dibenzo[b,h][1,4,7,10] tetraazacycloheptadecine-κN5, κN13, κN18, κN21, κN22]- [GC4713] |  |  | 18 | 21 |  |
| Manganese(II)bis-octanoato[(4aS,13aS,17aS,21aS)-1,2,3,4,4a,5,6,12,13,13a,14,15,16,17,17a,18,19,20,21,21a-Eicosahydro-11,7-nitrilo-7H-dibenzo[b,h][1,4,7,10] tetraazacycloheptadecine-κN5, κN13, κN18, κN21, κN22]- [GC4710] | 13 | 8 |  | 21 |  |
| Manganese(II)bis-phenylacetato[(4aS,13aS,17aS,21aS)-1,2,3,4,4a,5,6,12,13,13a,14,15,16,17,17a,18,19,20,21,21a-Eicosahydro-11,7-nitrilo-7H-dibenzo[b,h][1,4,7,10] tetraazacyclo-heptadecine-κN5, κN13, κN18, κN21, κN22]- [GC4718] | 32 | 28 |  |  |  |
| Manganese(II)bis-phenylglyoxaloto[(4aS,13aS,17aS,21aS)-1,2,3,4,4a,5,6,12,13,13a,14,15,16,17,17a,18,19,20,21,21a-Eicosahydro-11,7-nitrilo-7H-dibenzo[b,h][1,4,7,10]tetraazacyclohepta-decine-κN5, κN13, κN18, κN21, κN22]- [GC4719] | 25 | 31 | 28 |  |  |
| Manganese(II)bis-pivaloato[(4aS,13aS,17aS,21aS)-1,2,3,4,4a,5,6,12,13,13a,14,15,16,17,17a,18,19,20,21,21a-Eicosahydro-11,7-nitrilo-7H-dibenzo[b,h][1,4,7,10] tetraazacycloheptadecine-κN5, κN13, κN18, κN21, κN22]- [GC4709] | 17 |  |  | 22 |  |
| Manganese(II)bis-propionato[6R-Methyl(4aR,13aR,17aR,21 aR)-1,2,3,4,4a,5,6,12,13,13a,14,15,16,17,17a,18,19,20,21,21a-Eicosahydro-11,7-nitrilo-7H-dibenzo[b,h][1,4,7,10] tetraazacycloheptadecine-κN5, κN13, κN18, κN21, κN22]- [GC4747] |  |  |  | 20 |  |
| Manganese(II)bis-propionato[(4aR,13aR,17aR,21 aR)-1,2,3,4,4a,5,6,12,13,13a,14,15,16,17,17a,18,19,20,21,21a-Eicosahydro-11,7-nitrilo-7H-dibenzo[b,h][1,4,7,10] tetraazacycloheptadecine-κN5, κN13, κN18, κN21, κN22]- [GC4748] |  |  |  | 22 |  |
| Manganese(II)bis-propionato[(4aS,13aS,17aS,21aS)-1,2,3,4,4a,5,6,12,13,13a,14,15,16,17,17a,18,19,20,21,21a-Eicosahydro-11,7-nitrilo-7H-dibenzo[b,h][1,4,7,10] tetraaza-cycloheptadecine-κN5, κN13, κN18, κN21, κN22]- [GC4711] | 27 | 29 | 29 | 44 | Mini-Pig BioA (base oil Labrafil M1944 CS): 23% |
| Manganese(II)bis-rac-Mandelato[(4aS,13aS,17aS,21aS)-1,2,3,4,4a,5,6,12,13,13a,14,15,16,17,17a,18,19,20,21,21a-Eicosahydro-11,7-nitrilo-7H-dibenzo[b,h][1,4,7,10] tetraazacycloheptadecine-κN5, κN13, κN18, κN21, κN22]- [GC4706] | 28 |  |  |  |  |
| Manganese(II)bis-racemic-2-phenylpropionato[(4aS,13aS,17aS,21 aS)-1,2,3,4,4a,5,6,12,13,13a,14,15,16,17,17a,18,19,20,21,21a-Eicosahydro-11,7-nitrilo-7H-dibenzo[b,h][1,4,7,10] tetraazacycloheptadecine-κN5, κN13, κN18, κN21, κN22]- [GC4705] | 23 |  | 24 |  |  |
